Test results from BigSolDB 2.1.

CC(C)[C@@H](C)[C@@H](O)[C@H](O)[C@@H](C)[C@H]1CC[C@H]2[C@@H]3COC(=O)[C@H]4C[C@H](O)[C@H](O)C[C@]4(C)[C@H]3CC[C@]12C
solubility (mole fraction)
Conditions	283.15 K	288.15 K	293.15 K	298.15 K	303.15 K	308.15 K	313.15 K	318.15 K	323.15 K
in acetone	0.00144	0.00176	0.00207	0.0024	0.00273	0.00303	0.00334	0.00365	0.00405
in acetonitrile	0.000162	0.000206	0.000258	0.000322	0.000399	0.000491	0.0006	0.000728	0.000879
in ethanol	0.00219	0.00241	0.00296	0.0032	0.00356	0.00409	0.00476	0.00551	0.00634
in isopropanol	0.00136	0.00169	0.00209	0.00256	0.00312	0.00396	0.00464	0.00564	0.00667
